Measured values from the supplement of paper PMC4862054.
Several values for one entry are separate records, joined by “and”; a condition that tells them apart may be missing. Identical values can stand only once.

What follows are compounds tested on MDA-MB-453 (assay: drug sensitivity score (DSS), CellTiter-Blue viability (DSS (AUC-based score)); higher = stronger viability inhibition; extreme values may be limits of the assay). Details: incubation time: 72 h.
In short: (§1)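 Each 384-well plate was normalised to two references, 0.1 % DMSO and a positive kill control. Breast cancer cell lines (20 µl suspension) had been seeded onto compound at 5 or 9 concentrations and incubated 72 h, after which viability was read by CellTiter-Blue fluorescence at 560/590 nm. The drug sensitivity score reflects the area under the fitted dose-response curve.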
`CO[C@@]12[C@H](COC(N)=O)C3=C(C(=O)C(C)=C(N)C3=O)N1C[C@@H]1N[C@@H]12` [Mitomycin C] was tested, and the drug sensitivity score was 5.18. With `CCNC(=O)c1noc(-c2cc(C(C)C)c(O)cc2O)c1-c1ccc(CN2CCOCC2)cc1` [NVP-AUY922] the drug sensitivity score was 20.8. `CC1(C)CCC(c2ccc(Cl)cc2)=C(CN2CCN(c3ccc(C(=O)NS(=O)(=O)c4ccc(N[C@H](CCN5CCOCC5)CSc5ccccc5)c(S(=O)(=O)C(F)(F)F)c4)cc3)CC2)C1` [Navitoclax] gave a drug sensitivity score of 0. In the case of `Cc1cn(-c2cc(NC(=O)c3ccc(C)c(Nc4nccc(-c5cccnc5)n4)c3)cc(C(F)(F)F)c2)cn1` [Nilotinib], the drug sensitivity score is reported as 0. Work on `C=CCN(/C=C1/C(=O)O[C@H](COC)[C@@]2(C)C1=C(O)C(=O)C1=C2[C@H](OC(C)=O)C[C@]2(C)C(=O)CC[C@@H]12)CC=C` [PX-866] yielded a drug sensitivity score of 0. For `CC[C@H](CO)Nc1nc(NCc2ccccc2)c2ncn(C(C)C)c2n1` [Roscovitine], the drug sensitivity score was 0.

What follows are compounds tested on CAL-85-1 in the same assay as above. Details: incubation time: 72 h.
In short: as §1
Compound `COc1c2occc2cc2ccc(=O)oc12` [Methoxsalen] has a drug sensitivity score of 0.682. `CO[C@@H]1[C@H](N(C)C(=O)c2ccccc2)C[C@H]2O[C@]1(C)n1c3ccccc3c3c4c(c5c6ccccc6n2c5c31)C(=O)NC4` [Midostaurin] gave a drug sensitivity score of 3.45. `CO[C@@]12[C@H](COC(N)=O)C3=C(C(=O)C(C)=C(N)C3=O)N1C[C@@H]1N[C@@H]12` [Mitomycin C] was tested, and the drug sensitivity score was 4.52. `CCNC(=O)c1noc(-c2cc(C(C)C)c(O)cc2O)c1-c1ccc(CN2CCOCC2)cc1` [NVP-AUY922] showed a drug sensitivity score of 16. In the case of `CC1(C)CCC(c2ccc(Cl)cc2)=C(CN2CCN(c3ccc(C(=O)NS(=O)(=O)c4ccc(N[C@H](CCN5CCOCC5)CSc5ccccc5)c(S(=O)(=O)C(F)(F)F)c4)cc3)CC2)C1` [Navitoclax], the drug sensitivity score is reported as 0. `Cc1cn(-c2cc(NC(=O)c3ccc(C)c(Nc4nccc(-c5cccnc5)n4)c3)cc(C(F)(F)F)c2)cn1` [Nilotinib] was tested, and the drug sensitivity score was 0. `C=CCN(/C=C1/C(=O)O[C@H](COC)[C@@]2(C)C1=C(O)C(=O)C1=C2[C@H](OC(C)=O)C[C@]2(C)C(=O)CC[C@@H]12)CC=C` [PX-866] gave a drug sensitivity score of 0. With `CC[C@H](CO)Nc1nc(NCc2ccccc2)c2ncn(C(C)C)c2n1` [Roscovitine] the drug sensitivity score was 0.

What follows are compounds tested on HDQ-P1 (assay: normalised viability (% of control), CellTiter-Blue; higher = more viable cells (about 100 = DMSO control)). Details: 0.3 nM; incubation time: 72 h.
In short: (§2)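 Vehicle (100) and a positive kill control (0) anchored the normalisation of each plate, and Z'-factor was used for quality control. Breast cancer cell lines in 20 µl suspension were incubated 72 h over compound in 5 µl medium in 384-well plates, followed by CellTiter-Blue at 560/590 nm. The value is normalised viability at a single listed concentration of the series.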
`CCNC(=O)c1noc(-c2cc(C(C)C)c(O)cc2O)c1-c1ccc(CN2CCOCC2)cc1` [NVP-AUY922] was tested, and the normalised viability was 94%.

Same assay, conditions: 3 nM; incubation time: 72 h
Compound `COc1c2occc2cc2ccc(=O)oc12` [Methoxsalen] has a normalised viability of 115%. For `CO[C@@H]1[C@H](N(C)C(=O)c2ccccc2)C[C@H]2O[C@]1(C)n1c3ccccc3c3c4c(c5c6ccccc6n2c5c31)C(=O)NC4` [Midostaurin], the normalised viability was 84.7%. `CO[C@@]12[C@H](COC(N)=O)C3=C(C(=O)C(C)=C(N)C3=O)N1C[C@@H]1N[C@@H]12` [Mitomycin C] was tested, and the normalised viability was 105%. `CCNC(=O)c1noc(-c2cc(C(C)C)c(O)cc2O)c1-c1ccc(CN2CCOCC2)cc1` [NVP-AUY922] was tested, and the normalised viability was 97.8%. Compound `CC1(C)CCC(c2ccc(Cl)cc2)=C(CN2CCN(c3ccc(C(=O)NS(=O)(=O)c4ccc(N[C@H](CCN5CCOCC5)CSc5ccccc5)c(S(=O)(=O)C(F)(F)F)c4)cc3)CC2)C1` [Navitoclax] has a normalised viability of 81.4%. In the case of `Cc1cn(-c2cc(NC(=O)c3ccc(C)c(Nc4nccc(-c5cccnc5)n4)c3)cc(C(F)(F)F)c2)cn1` [Nilotinib], the normalised viability is reported as 92.5% and 86.2%. Work on `C=CCN(/C=C1/C(=O)O[C@H](COC)[C@@]2(C)C1=C(O)C(=O)C1=C2[C@H](OC(C)=O)C[C@]2(C)C(=O)CC[C@@H]12)CC=C` [PX-866] yielded a normalised viability of 113%. Work on `CC[C@H](CO)Nc1nc(NCc2ccccc2)c2ncn(C(C)C)c2n1` [Roscovitine] yielded a normalised viability of 101%.

Same assay, conditions: 10 nM; incubation time: 72 h
With `CCNC(=O)c1noc(-c2cc(C(C)C)c(O)cc2O)c1-c1ccc(CN2CCOCC2)cc1` [NVP-AUY922] the normalised viability was 64.9%.

Same assay, conditions: 30 nM; incubation time: 72 h
`COc1c2occc2cc2ccc(=O)oc12` [Methoxsalen] showed a normalised viability of 104%. In the case of `CO[C@@H]1[C@H](N(C)C(=O)c2ccccc2)C[C@H]2O[C@]1(C)n1c3ccccc3c3c4c(c5c6ccccc6n2c5c31)C(=O)NC4` [Midostaurin], the normalised viability is reported as 95.7%. For `CO[C@@]12[C@H](COC(N)=O)C3=C(C(=O)C(C)=C(N)C3=O)N1C[C@@H]1N[C@@H]12` [Mitomycin C], the normalised viability was 96.3%. `CC1(C)CCC(c2ccc(Cl)cc2)=C(CN2CCN(c3ccc(C(=O)NS(=O)(=O)c4ccc(N[C@H](CCN5CCOCC5)CSc5ccccc5)c(S(=O)(=O)C(F)(F)F)c4)cc3)CC2)C1` [Navitoclax] gave a normalised viability of 79.7%. `Cc1cn(-c2cc(NC(=O)c3ccc(C)c(Nc4nccc(-c5cccnc5)n4)c3)cc(C(F)(F)F)c2)cn1` [Nilotinib] was tested, and the normalised viability was 87.3% and 81.5%. `C=CCN(/C=C1/C(=O)O[C@H](COC)[C@@]2(C)C1=C(O)C(=O)C1=C2[C@H](OC(C)=O)C[C@]2(C)C(=O)CC[C@@H]12)CC=C` [PX-866] gave a normalised viability of 128%. Compound `CC[C@H](CO)Nc1nc(NCc2ccccc2)c2ncn(C(C)C)c2n1` [Roscovitine] has a normalised viability of 103%.

Same assay, conditions: 100 nM; incubation time: 72 h
`COc1c2occc2cc2ccc(=O)oc12` [Methoxsalen] showed a normalised viability of 105%. `CO[C@@H]1[C@H](N(C)C(=O)c2ccccc2)C[C@H]2O[C@]1(C)n1c3ccccc3c3c4c(c5c6ccccc6n2c5c31)C(=O)NC4` [Midostaurin] was tested, and the normalised viability was 96.8%. In the case of `CO[C@@]12[C@H](COC(N)=O)C3=C(C(=O)C(C)=C(N)C3=O)N1C[C@@H]1N[C@@H]12` [Mitomycin C], the normalised viability is reported as 104%. `CC1(C)CCC(c2ccc(Cl)cc2)=C(CN2CCN(c3ccc(C(=O)NS(=O)(=O)c4ccc(N[C@H](CCN5CCOCC5)CSc5ccccc5)c(S(=O)(=O)C(F)(F)F)c4)cc3)CC2)C1` [Navitoclax] showed a normalised viability of 79.3%. For `Cc1cn(-c2cc(NC(=O)c3ccc(C)c(Nc4nccc(-c5cccnc5)n4)c3)cc(C(F)(F)F)c2)cn1` [Nilotinib], the normalised viability was 95.3% and 83.1%. In the case of `C=CCN(/C=C1/C(=O)O[C@H](COC)[C@@]2(C)C1=C(O)C(=O)C1=C2[C@H](OC(C)=O)C[C@]2(C)C(=O)CC[C@@H]12)CC=C` [PX-866], the normalised viability is reported as 114%. `CC[C@H](CO)Nc1nc(NCc2ccccc2)c2ncn(C(C)C)c2n1` [Roscovitine] showed a normalised viability of 98.3%.

These compounds were tested on HCC1599 in the same assay as above. Details: 1 nM; incubation time: 72 h.
In short: as §2
`CCNC(=O)c1noc(-c2cc(C(C)C)c(O)cc2O)c1-c1ccc(CN2CCOCC2)cc1` [NVP-AUY922] was tested, and the normalised viability was 101%.

Same assay, conditions: 10 nM; incubation time: 72 h
With `COc1c2occc2cc2ccc(=O)oc12` [Methoxsalen] the normalised viability was 106%. `CO[C@@H]1[C@H](N(C)C(=O)c2ccccc2)C[C@H]2O[C@]1(C)n1c3ccccc3c3c4c(c5c6ccccc6n2c5c31)C(=O)NC4` [Midostaurin] was tested, and the normalised viability was 106%.
